From patent US8828908B2, “Herbicidally active bicyclic 1,3-dione compounds” (Syngenta Limited, priority 2007, dated 2014)

Key:
Type in all cases: in vivo
[1] = tested on: Amaranthus retroflexus (AMARE); assay: Example A post-emergence herbicidal glasshouse test; settings: 312 h, evaluated after 13 days, 100=total damage to plant, 0=no damage
Experimental: (§1) Seeds of a variety of test species were sown in standard soil in pots. After cultivation for one day (pre-emergence) or after 8 days cultivation (post-emergence) under controlled conditions in a glasshouse (at 24/16° C., day/night; 14 hours light; 65% humidity), the plants were sprayed with an aqueous spray solution derived from the formulation of the technical active ingredient in acetone/water (50:50) solution containing 0.5% Tween 20 (polyoxyethelyene sorbitan monolaurate, CAS RN 9005-64-5). The test plants were then grown in a glasshouse under controlled conditions in a glasshouse (at 24/16° C., day/night; 14 hours light; 65% humidity) and watered twice daily. After 13 days for pre and post-emergence, the test was evaluated (100=total damage to plant; 0=no damage to plant).
(§2) Alopecurus myosuroides (ALOMY), Avena fatua (AVEFA), Setaria faberi (SETFA), Echinochloa crus-galli (ECHCG), Solanum nigrum (SOLNI) and Amaranthus retroflexus (AMARE)

[2] = tested on: Setaria faberi (SETFA); assay: as above; settings: 312 h, evaluated after 13 days, 100=total damage to plant, 0=no damage
Experimental: as §1, §2

[3] = tested on: Avena fatua (AVEFA); assay: as above; settings: 312 h, evaluated after 13 days, 100=total damage to plant, 0=no damage
Experimental: as §1, §2

[4] = tested on: Alopecurus myosuroides (ALOMY); assay: as above; settings: 312 h, evaluated after 13 days, 100=total damage to plant, 0=no damage
Experimental: as §1, §2

[5] = tested on: Echinochloa crus-galli (ECHCG); assay: as above; settings: 312 h, evaluated after 13 days, 100=total damage to plant, 0=no damage
Experimental: as §1, §2

[6] = tested on: Amaranthus retroflexus (AMARE); assay: Example A pre-emergence herbicidal glasshouse test; settings: 312 h, Rate 250 g/ha, evaluated after 13 days, 100=total damage to plant, 0=no damage to plant
Experimental: as §1, §2

[7] = tested on: Setaria faberi (SETFA); assay: Example A pre-emergence herbicidal glasshouse test; settings: 312 h, Rate 250 g/ha, evaluated after 13 days, 100=total damage to plant, 0=no damage to plant
Experimental: as §1, §2

[8] = tested on: Avena fatua (AVEFA); assay: Example A pre-emergence herbicidal glasshouse test; settings: 312 h, Rate 250 g/ha, evaluated after 13 days, 100=total damage to plant, 0=no damage to plant
Experimental: as §1, §2

[9] = tested on: Alopecurus myosuroides (ALOMY); assay: Example A pre-emergence herbicidal glasshouse test; settings: 312 h, Rate 250 g/ha, evaluated after 13 days, 100=total damage to plant, 0=no damage to plant
Experimental: as §1, §2

[10] = tested on: Echinochloa crus-galli (ECHCG); assay: Example A pre-emergence herbicidal glasshouse test; settings: 312 h, Rate 250 g/ha, evaluated after 13 days, 100=total damage to plant, 0=no damage to plant
Experimental: as §1, §2

For `Cc1ccc(-c2ccc(F)c(F)c2)cc1C1=C(O)[C@H]2CC[C@H](C2)C1=O` (single isomer, unassigned) [Compound T9], the pest or weed control at 250 g/ha [1] was 0%, the pest or weed control at 250 g/ha [2] was 80% and the pest or weed control at 250 g/ha [3] was 40%. It also gave a pest or weed control at 250 g/ha [4] of 10%, a pest or weed control at 250 g/ha [5] of 70% and a pest or weed control at 250 g/ha [6] of 0%. It also gave a pest or weed control at 250 g/ha [7] of 50%, a pest or weed control at 250 g/ha [8] of 0% and a pest or weed control at 250 g/ha [9] of 0%. It also gave a pest or weed control at 250 g/ha [10] of 0%.

`Cc1ccc(-c2ccccc2C)cc1C1=C(O)[C@H]2CC[C@H](C2)C1=O` (single isomer, unassigned) [Compound T18] was tested, and the pest or weed control at 250 g/ha [1] was 0%, the pest or weed control at 250 g/ha [2] was 0% and the pest or weed control at 250 g/ha [3] was 0%. For the same compound, the pest or weed control at 250 g/ha [4] was 0%, the pest or weed control at 250 g/ha [5] was 0% and the pest or weed control at 250 g/ha [6] was 0%. For the same compound, the pest or weed control at 250 g/ha [7] was 0%, the pest or weed control at 250 g/ha [8] was 0% and the pest or weed control at 250 g/ha [9] was 0%. The pest or weed control at 250 g/ha [10] was 0%.

With `Cc1cccc(-c2ccc(C)c(C3=C(O)[C@H]4CC[C@H](C4)C3=O)c2)c1` (single isomer, unassigned) [Compound T19] the pest or weed control at 250 g/ha [1] was 20%, the pest or weed control at 250 g/ha [2] was 50% and the pest or weed control at 250 g/ha [3] was 0%. The pest or weed control at 250 g/ha [4] was 0%, the pest or weed control at 250 g/ha [5] was 40% and the pest or weed control at 250 g/ha [6] was 0%. For the same compound, the pest or weed control at 250 g/ha [7] was 0%, the pest or weed control at 250 g/ha [8] was 0% and the pest or weed control at 250 g/ha [9] was 0%. For the same compound, the pest or weed control at 250 g/ha [10] was 0%.

`Cc1ccc(-c2ccc(C)c(C3=C(O)[C@H]4CC[C@H](C4)C3=O)c2)cc1` (single isomer, unassigned) [Compound T20] gave a pest or weed control at 250 g/ha [1] of 0%, a pest or weed control at 250 g/ha [2] of 50% and a pest or weed control at 250 g/ha [3] of 0%. It also gave a pest or weed control at 250 g/ha [4] of 20%, a pest or weed control at 250 g/ha [5] of 60% and a pest or weed control at 250 g/ha [6] of 0%. For the same compound, the pest or weed control at 250 g/ha [7] was 0%, the pest or weed control at 250 g/ha [8] was 0% and the pest or weed control at 250 g/ha [9] was 10%. It also gave a pest or weed control at 250 g/ha [10] of 40%.

`Cc1ccc(-c2ccccc2C(F)(F)F)cc1C1=C(O)[C@H]2CC[C@H](C2)C1=O` (single isomer, unassigned) [Compound T21] gave a pest or weed control at 250 g/ha [1] of 0%, a pest or weed control at 250 g/ha [2] of 20% and a pest or weed control at 250 g/ha [3] of 0%. It also gave a pest or weed control at 250 g/ha [4] of 0%, a pest or weed control at 250 g/ha [5] of 0% and a pest or weed control at 250 g/ha [6] of 0%. For the same compound, the pest or weed control at 250 g/ha [7] was 0%, the pest or weed control at 250 g/ha [8] was 0% and the pest or weed control at 250 g/ha [9] was 0%. The pest or weed control at 250 g/ha [10] was 0%.

`Cc1ccc(-c2cccc(C(F)(F)F)c2)cc1C1=C(O)[C@H]2CC[C@H](C2)C1=O` (single isomer, unassigned) [Compound T22] was tested, and the pest or weed control at 250 g/ha [1] was 0%, the pest or weed control at 250 g/ha [2] was 50% and the pest or weed control at 250 g/ha [3] was 0%. For the same compound, the pest or weed control at 250 g/ha [4] was 0%, the pest or weed control at 250 g/ha [5] was 20% and the pest or weed control at 250 g/ha [6] was 0%. For the same compound, the pest or weed control at 250 g/ha [7] was 10%, the pest or weed control at 250 g/ha [8] was 0% and the pest or weed control at 250 g/ha [9] was 0%. The pest or weed control at 250 g/ha [10] was 20%.

`Cc1ccc(-c2ccc(C(F)(F)F)cc2)cc1C1=C(O)[C@H]2CC[C@H](C2)C1=O` (single isomer, unassigned) [Compound T23] was tested, and the pest or weed control at 250 g/ha [1] was 0%, the pest or weed control at 250 g/ha [2] was 100% and the pest or weed control at 250 g/ha [3] was 60%. For the same compound, the pest or weed control at 250 g/ha [4] was 60%, the pest or weed control at 250 g/ha [5] was 90% and the pest or weed control at 250 g/ha [6] was 0%. For the same compound, the pest or weed control at 250 g/ha [7] was 100%, the pest or weed control at 250 g/ha [8] was 0% and the pest or weed control at 250 g/ha [9] was 50%. For the same compound, the pest or weed control at 250 g/ha [10] was 90%.

Compound `CCc1ccc(-c2cccc(Cl)c2)cc1C1=C(O)[C@H]2CC[C@H](C2)C1=O` (single isomer, unassigned) [Compound T38] has a pest or weed control at 250 g/ha [1] of 0%, a pest or weed control at 250 g/ha [2] of 40% and a pest or weed control at 250 g/ha [3] of 0%. The pest or weed control at 250 g/ha [4] was 20%, the pest or weed control at 250 g/ha [5] was 70% and the pest or weed control at 250 g/ha [6] was 0%. It also gave a pest or weed control at 250 g/ha [7] of 0%, a pest or weed control at 250 g/ha [8] of 0% and a pest or weed control at 250 g/ha [9] of 0%. It also gave a pest or weed control at 250 g/ha [10] of 60%.

`CCc1ccc(-c2cc(Cl)ccc2OC)cc1C1=C(O)[C@H]2CC[C@H](C2)C1=O` (single isomer, unassigned) [Compound T40] was tested, and the pest or weed control at 250 g/ha [1] was 0%, the pest or weed control at 250 g/ha [2] was 0% and the pest or weed control at 250 g/ha [3] was 0%. The pest or weed control at 250 g/ha [4] was 0%, the pest or weed control at 250 g/ha [5] was 0% and the pest or weed control at 250 g/ha [6] was 0%. For the same compound, the pest or weed control at 250 g/ha [7] was 0%, the pest or weed control at 250 g/ha [8] was 0% and the pest or weed control at 250 g/ha [9] was 0%. For the same compound, the pest or weed control at 250 g/ha [10] was 0%.

In the case of `Cc1ccc(-c2ccc(Cl)cc2C(F)(F)F)cc1C1=C(O)[C@H]2CC[C@H](C2)C1=O` (single isomer, unassigned) [Compound T42], the pest or weed control at 250 g/ha [1] is reported as 0%, the pest or weed control at 250 g/ha [2] is reported as 0% and the pest or weed control at 250 g/ha [3] is reported as 0%. For the same compound, the pest or weed control at 250 g/ha [4] was 0%, the pest or weed control at 250 g/ha [5] was 0% and the pest or weed control at 250 g/ha [6] was 0%. For the same compound, the pest or weed control at 250 g/ha [7] was 0%, the pest or weed control at 250 g/ha [8] was 0% and the pest or weed control at 250 g/ha [9] was 0%. It also gave a pest or weed control at 250 g/ha [10] of 0%.

For `CCc1ccc(-c2ccc(Cl)cc2C(F)(F)F)cc1C1=C(O)[C@H]2CC[C@H](C2)C1=O` (single isomer, unassigned) [Compound T45], the pest or weed control at 250 g/ha [1] was 0%, the pest or weed control at 250 g/ha [2] was 70% and the pest or weed control at 250 g/ha [3] was 0%. It also gave a pest or weed control at 250 g/ha [4] of 30%, a pest or weed control at 250 g/ha [5] of 60% and a pest or weed control at 250 g/ha [6] of 0%. The pest or weed control at 250 g/ha [7] was 0%, the pest or weed control at 250 g/ha [8] was 0% and the pest or weed control at 250 g/ha [9] was 0%. It also gave a pest or weed control at 250 g/ha [10] of 0%.

In the case of `Cc1ccc(-c2cccc(Cl)c2F)cc1C1=C(O)[C@H]2CC[C@H](C2)C1=O` (single isomer, unassigned) [Compound T46], the pest or weed control at 250 g/ha [1] is reported as 0%, the pest or weed control at 250 g/ha [2] is reported as 0% and the pest or weed control at 250 g/ha [3] is reported as 0%. It also gave a pest or weed control at 250 g/ha [4] of 0%, a pest or weed control at 250 g/ha [5] of 0% and a pest or weed control at 250 g/ha [6] of 0%. It also gave a pest or weed control at 250 g/ha [7] of 0%, a pest or weed control at 250 g/ha [8] of 0% and a pest or weed control at 250 g/ha [9] of 0%. It also gave a pest or weed control at 250 g/ha [10] of 0%.

For `Cc1ccc(-c2cc(F)cc(Cl)c2)cc1C1=C(O)[C@H]2CC[C@H](C2)C1=O` (single isomer, unassigned) [Compound T47], the pest or weed control at 250 g/ha [1] was 0%, the pest or weed control at 250 g/ha [2] was 0% and the pest or weed control at 250 g/ha [3] was 0%. For the same compound, the pest or weed control at 250 g/ha [4] was 0%, the pest or weed control at 250 g/ha [5] was 30% and the pest or weed control at 250 g/ha [6] was 0%. The pest or weed control at 250 g/ha [7] was 0%, the pest or weed control at 250 g/ha [8] was 0% and the pest or weed control at 250 g/ha [9] was 0%. The pest or weed control at 250 g/ha [10] was 0%.

`Cc1ccc(-c2cccc(Cl)c2C)cc1C1=C(O)[C@H]2CC[C@H](C2)C1=O` (single isomer, unassigned) [Compound T48] was tested, and the pest or weed control at 250 g/ha [1] was 0%, the pest or weed control at 250 g/ha [2] was 40% and the pest or weed control at 250 g/ha [3] was 20%. It also gave a pest or weed control at 250 g/ha [4] of 0%, a pest or weed control at 250 g/ha [5] of 40% and a pest or weed control at 250 g/ha [6] of 0%. It also gave a pest or weed control at 250 g/ha [7] of 0%, a pest or weed control at 250 g/ha [8] of 0% and a pest or weed control at 250 g/ha [9] of 0%. For the same compound, the pest or weed control at 250 g/ha [10] was 0%.
